Test results reported in US20120253036A1, “AGENT FOR TREATING FIBROMYALGIA” (priority 2009, published 2012).

Columns and labels:
[1] = test system: disease animal model of fibromyalgia; assay: Antagonism by 5-HT2C receptor antagonist SB242084 of the action of lorcaserin on reserpine-lowered muscle tenderness threshold; type: in vivo, Sprague-Dawley rats
Description: Thirty male Sprague-Dawley rats (Japan SLC) were used. […] The other 6 rats were not administered with reserpine and provided for the experiment as a healthy control. The drug efficacy was evaluated 5 days after the final administration of reserpine.
Twenty four reserpine-administered rats were divided into four groups (n=6/group), and the drug was administered to the respective groups in the following manner.
Group 1: 10% β cyclodextrin (vehicle of SB242084)+distilled water (vehicle of lorcaserin)
Group 2: 10% β cyclodextrin+lorcaserin at 3 mg/kg
Group 3: SB242084 at 0.1 mg/kg+lorcaserin at 3 mg/kg
Group 4: SB242084 at 1 mg/kg+lorcaserin at 3 mg/kg SB242084 or the vehicle thereof was administered by intraperitoneal administration, and lorcaserin or the vehicle thereof was orally administered. […] The muscle tenderness threshold was measured 60 minutes after lorcaserin or the vehicle thereof was administered. For the 6 healthy rats, only the muscle tenderness threshold was measured without administering the drug.
All measured values were indicated as an average±standard error. […] A significance level (P) less than 5% was determined as statistical significance (P<0.001 was indicated as ### in the drawing). […] A significance level (P) less than 5% was determined as statistical significance (P<0.001 was indicated as *** in the drawing).

[2] = test system: disease animal model of fibromyalgia; assay: Effect of test drug on lowering of muscle tenderness threshold induced by repeated reserpine administration; type: in vivo, Sprague-Dawley rats; conditions: for effect on the lowering of the muscle tenderness threshold induced by reserpine: male rats; for statistical significance of the effect on muscle tenderness threshold vs vehicle: two way ANOVA and Bonferroni
Description: (§1) The muscle tenderness threshold was measured according to the method of Schafers et al (Schafers M et al, Pain, 104, 579-588, 2003). A pressure stimulus gradually increasing up to 250 g was applied to the gastrocnemius of the right rear foot of the rat. […] The measurement was performed for three times for each point in time, and the average thereof was taken as a measured value. The cutaneous nociception threshold was measured according to the method of Chaplan et al (Chaplan et al., J Neurosci Methods, 53, 55-63, 1994). The measurement was performed using a series of von Frey filaments differing in thickness, which made it possible to apply a constant pressure. The rats were adapted to a cage for measurement having a wire mesh bottom, and then von Frey filaments (0.42 g, 0.74 g, 1.2 g, 2.1 g, 3.5 g, 6.0 g, 9.3 g, and 15.8 g) were applied to the plantar surface of a right rear foot of the rat until the withdrawal response was caused in the right rear foot or until 6 seconds elapsed without the response. The von Frey filament was applied using an up and down method. That is, a filament having about a medium thickness was applied initially, and when the withdrawal response was observed, a filament having a thickness which is one level lower than the initial filament was applied, and when the response was not observed, a filament having a thickness which is one level higher than the initial filament was applied. The cutaneous nociception threshold at the respective points in time was calculated as a threshold (g) of a foot withdrawal response by using a calculation formula reported by Chaplan et al (Chaplan et al. described above). The influence of reserpine on the muscle tenderness threshold and the threshold of cutaneous nociception was examined according to the following protocol. 24 rats were used for male and female rats respectively. The muscle tenderness threshold and the cutaneous nociception threshold before the reserpine administration (base line) were measured, and then the rats were assigned to any of a vehicle (0.5% aqueous acetic acid) group, a 0.1 mg/kg reserpine group, a 0.3 mg/kg group, and a 1 mg/kg group based on the dose of reserpine (6 rats per group). A vehicle or reserpine was subcutaneously administered to the back of rats of the respective groups once a day for three days. The volume of the vehicle or reserpine was set to 1 ml per a weight of a rat of 1 kg for all groups. On the first, third, fifth, seventh, tenth, fourteenth, and twenty-first days after the final administration of the vehicle or reserpine, the muscle tenderness threshold and the cutaneous nociception threshold were measured for the respective rats.
Male Sprague-Dawley rats (Japan SLC, Hamamatsu, Japan) were used. Thirty rats were used for each drug. As shown in Reference Example 1, reserpine was repeatedly administered at 1 mg/kg once a day for 3 days for 24 rats, thereby causing the lowering of the muscle tenderness threshold and the cutaneous nociception threshold. The other 6 rats were not administered with reserpine and provided for the experiment as a healthy control.
The drug efficacy was evaluated 5 days after the final administration of reserpine for all groups.
In evaluating the respective test drugs (5-HT2C receptor agonists), the muscle tenderness threshold of the rats (24 reserpine-administered rats and 6 healthy rats) before the administration of the test drug was initially measured. The 24 reserpine-administered rats were assigned to 4 groups according to the dose of the test drug. For YM348 or a vehicle thereof, the muscle tenderness threshold was measured 30, 60, and 120 minutes after the administration. For lorcaserin or a vehicle thereof, the muscle tenderness threshold was measured 60, 120, and 240 minutes after the administration. For vabicaserin or a vehicle thereof, the muscle tenderness threshold was measured 30, 60, 120, and 240 minutes after the administration. […]

[3] = test system: disease animal model of fibromyalgia; assay: Effect of drug on reserpine-induced lowering of cutaneous nociception threshold; type: in vivo, Sprague-Dawley rats; conditions: 5 days after final reserpine; up to a dose of 10 mg/kg
Description: The cutaneous nociception threshold was measured according to the method of Chaplan et al (Chaplan et al., J Neurosci Methods, 53, 55-63, 1994). The measurement was performed using a series of von Frey filaments differing in thickness, which made it possible to apply a constant pressure. The rats were adapted to a cage for measurement having a wire mesh bottom, and then von Frey filaments (0.42 g, 0.74 g, 1.2 g, 2.1 g, 3.5 g, 6.0 g, 9.3 g, and 15.8 g) were applied to the plantar surface of a right rear foot of the rat until the withdrawal response was caused in the right rear foot or until 6 seconds elapsed without the response. The von Frey filament was applied using an up and down method. […] The cutaneous nociception threshold at the respective points in time was calculated as a threshold (g) of a foot withdrawal response by using a calculation formula reported by Chaplan et al (Chaplan et al. described above).
In addition, 5 days after the final administration of reserpine, the effect of diclofenac which is a non-steroidal anti-inflammatory drug on the reserpine-induced lowering of the muscle tenderness threshold and the lowering of cutaneous nociception threshold was measured.

[4] = test system: patients with fibromyalgia; conditions: cited from earlier work; for score of pain symptoms of patients with fibromyalgia compared to a placebo group: Non-Patent Documents 7 to 9; for effectiveness for treating patients with fibromyalgia: literature (Yunus 1989; Goldenberg 1986)
[5] = test system: Male and female Sprague-Dawley rats; assay: Influence of repeated reserpine administration on muscle tenderness threshold; type: in vivo; conditions: for time after final administration for which muscle tenderness threshold was statistically significantly lower than vehicle: 1 mg/kg group
Description: (§2) Male and female Sprague-Dawley rats (Japan SLC, Hamamatsu, Japan) were used.
as §1, with “The influence of reserpine on the muscle tenderness threshold and the threshold of cutaneous nociception was examined according to the following protocol. 24 rats were used for male and female rats respectively.” left out, “A vehicle or reserpine was subcutaneously administered to the back of rats of the respective groups once a day for three days. The volume of the vehicle or reserpine was set to 1 ml per a weight of a rat of 1 kg for all groups.” left out
(§3) All measured values were indicated as an average±standard error. The statistical significant difference in the measured value at the respective points in time between the reserpine-administered group and the vehicle-administered group was verified by two way ANOVA and a Bonferroni method. A significance level (P) less than 5% was determined as statistical significance (P<0.05 was indicated as * in the drawings).

[6] = test system: Male and female Sprague-Dawley rats; assay: Influence of repeated reserpine administration on cutaneous nociception threshold (von Frey); type: in vivo; conditions: for time after final administration for which cutaneous nociception threshold was statistically significantly lower than vehicle: 1 mg/kg group
Description: as §2
as §1, with “The influence of reserpine on the muscle tenderness threshold and the threshold of cutaneous nociception was examined according to the following protocol. 24 rats were used for male and female rats respectively.” left out, “A vehicle or reserpine was subcutaneously administered to the back of rats of the respective groups once a day for three days. The volume of the vehicle or reserpine was set to 1 ml per a weight of a rat of 1 kg for all groups.” left out
as §3

Male Sprague-Dawley rats = assay: Forced swimming test after repeated reserpine administration (immobility time); type: in vivo; conditions: 1 mg/kg s.c. once a day for 3 days
Description: Male Sprague-Dawley rats (7-week old, Japan SLC, Hamamatsu, Japan) were used as animals. A forced swimming test was performed by modifying the method of Porsolt (1977) et al in the following manner. Soft wires including a magnet (a diameter of 1 mm and a length of 3 mm) were mounted on both the forelimbs of the animal, and the animals were caused to swim one by one in a cylindrical plastic water tank (a diameter of 20 cm and a height of 45 cm) filled with water (24±1° C.) up to 30 cm depth. […] Each forced swimming test includes a pretest session (15 minutes of swimming) and a test session (5 minutes of swimming) 24 hours after the pretest session, and the immobility time was measured in the test session. […] All of the measured values were indicated as an average±standard error. The statistical significant difference in the measured value at the respective test schedules between the reserpine-administered group and the vehicle-administered group was verified by a Student's t-test. A significance level (P) less than 5% was determined as statistical significance (P<0.05 was indicated as * in the drawings).

[7] = 0.1, 0.3, 1 mg/kg s.c. once a day for three days, male and female rats, two way ANOVA

For Cc1cc2c(cc1Cl)N(C(=O)Nc1ccc(Oc3cccnc3C)nc1)CC2 [SB242084], the “antagonistic action against the action of lorcaserin on muscle tenderness threshold” value ([1]; SB242084 0.1 and 1 mg/kg i.p. 15 min before lorcaserin 3 mg/kg oral, 60 min, Dunnett's test) was “statistically significant antagonistic action in a dose dependent manner”.

With CCc1cc2c(ccc3cnn(C[C@H](C)N)c32)o1 [YM348, (S)-2-(7-ethyl-1H-furo[2,3-g]indazol-1-yl)-1-methylethylamine] the “effect on the lowering of the muscle tenderness threshold induced by reserpine” value ([2]; 5 days after final reserpine (1 mg/kg s.c. x3 days), oral 0.03, 0.1, 0.3 mg/kg, 30, 60, 120 min after administration) was “restored the lowering of the muscle tenderness threshold induced by reserpine in a dose dependent manner” and the “statistical significance of the effect on muscle tenderness threshold vs vehicle” value (“statistical significance … vs vehicle” below) ([2]; oral, at a dose of 0.1 mg/kg or 0.3 mg/kg) was “statistically significant”.

With O=C(O)Cc1ccccc1Nc1c(Cl)cccc1Cl [diclofenac] the “effect on the reserpine-induced lowering of the muscle tenderness threshold” value ([2]; 5 days after final reserpine, up to a dose of 10 mg/kg) was “not restored” and the “effect on the reserpine-induced lowering of cutaneous nociception threshold” value [3] was “not restored”.

For CNCC[C@H](Oc1cccc2ccccc12)c1cccs1 [duloxetine], the “score of pain symptoms of patients with fibromyalgia compared to a placebo group” value [4] is listed as “statistically significantly reduces the score of pain symptoms”.

For CC(C)Cc1ccc(C(C)C(=O)O)cc1 (stereo not drawn) [ibuprofen], the “effectiveness for treating patients with fibromyalgia” value [4] is given as “not significantly effective”.

With C[C@H]1CNCCc2ccc(Cl)cc21.Cl [lorcaserin, (1R)-8-chloro-1-methyl-2,3,4,5-tetrahydro-1H-3-benzazepine] the “effect on the lowering of the muscle tenderness threshold induced by reserpine” value ([2]; 5 days after final reserpine, oral 0.3, 1, 3 mg/kg, 60, 120, 240 min after administration) was “restored the lowering of the muscle tenderness threshold induced by reserpine in a dose dependent manner”, the “statistical significance … vs vehicle” value ([2]; oral, at a dose of 1 mg/kg or 3 mg/kg) was “statistically significant” and the “effect on the lowering of the muscle tenderness threshold induced by reserpine vs vehicle group (v+v)” value ([1]; lorcaserin 3 mg/kg oral + 10% β cyclodextrin i.p., 60 min after administration, Student's t-test) was “statistically significantly restored the lowering of the muscle tenderness threshold induced by reserpine”.

For COc1ccc2cc([C@H](C)C(=O)O)ccc2c1 [naproxen], the “effectiveness for treating patients with fibromyalgia” value [4] is listed as “not significantly effective”.

In the case of CC(C)C[C@H](CN)CC(=O)O [pregabalin], the “score of pain symptoms of patients with fibromyalgia compared to a placebo group” value [4] is listed as “statistically significantly reduces the score of pain symptoms”.

For COC(=O)[C@H]1[C@H]2C[C@@H]3c4[nH]c5cc(OC)ccc5c4CCN3C[C@H]2C[C@@H](OC(=O)c2cc(OC)c(OC)c(OC)c2)[C@@H]1OC [reserpine], the “time after final administration for which muscle tenderness threshold was statistically significantly lower than vehicle” value ([5]; female rats) was 7 days, the “time after final administration for which muscle tenderness threshold was statistically significantly lower than vehicle” value ([5]; male rats) was 10 days and the “influence on muscle tenderness threshold” value ([5]; 1 mg/kg reserpine group) was “markedly lowered”. The “influence on muscle tenderness threshold” value [5, 7] was “significantly lowered the muscle tenderness threshold”, the “time after final administration for which cutaneous nociception threshold was statistically significantly lower than vehicle” value ([6]; female rats) was 14 days and the “time after final administration for which cutaneous nociception threshold was statistically significantly lower than vehicle” value ([6]; male rats) was 21 days. For the same compound, the “influence on cutaneous nociception threshold” value ([6]; 1 mg/kg reserpine group) was “markedly lowered”, the “influence on cutaneous nociception threshold” value [6, 7] was “significantly lowered the cutaneous nociception threshold” and the “increase in the immobility time in forced swimming test” value (Male Sprague-Dawley rats; first day after final administration (P=0.625)) was “not confirmed”. The “increase in the immobility time in forced swimming test” value (Male Sprague-Dawley rats; third, fifth, seventh and fourteenth days after final administration (P=0.0007, 0.004, <0.0001, 0.0008)) was “significant increase in the immobility time”.

For Cl.c1cc2c3c(c1)[C@H]1CCC[C@H]1CN3CCNC2 [vabicaserin, (−)-(9aR,12aS)-4,5,6,7,9,9a,10,11,12,12a-decahydrocyclopenta[c][1,4]diazepino[6,7,1-ij]quinoline], the “statistical significance … vs vehicle” value ([2]; dorsal subcutaneous, at a dose of 1 mg/kg or 3 mg/kg) was “statistically significant” and the “effect on the lowering of the muscle tenderness threshold induced by reserpine” value ([2]; 5 days after final reserpine, dorsal subcutaneous 0.3, 1, 3 mg/kg, 30, 60, 120, 240 min after administration) was “restored the lowering of the muscle tenderness threshold induced by reserpine in a dose dependent manner”.
